From patent US9743646B2, “Method of establishing isogenic multi-xenograft model and the use thereof” (Crown Bioscience Inc. (Taicang), priority 2014, dated 2017)

Tests used:
Format in all cases: in vivo, Nude mice
[1] = tested on: SW48-parental xenograft (HD PAR-006, KRAS WT); assay: Tumor volume of SW48-parental xenograft in isogenic dual-xenograft mice; settings: Erlotinib 50 mg/kg p.o. once daily, 14 days, vs saline
Procedure: The SW48 series colorectal adenocarcinoma cells were obtained from Horizon Discovery Ltd (see below in Table 1 for Catalogue number details), and maintained in vitro as a monolayer culture in McCoy's 5A medium supplemented with 10% heat inactivated fetal bovine serum, 2 mM L-glutamine, with or without G418, at 37° C. in an atmosphere of 5% CO2 in air. The tumor cells were routinely subcultured every 3-5 days by trypsin-EDTA treatment. Cells growing in an exponential growth phase were harvested and counted for tumor inoculation. HD 103-002 cell line was derived from parental SW48 cell line HD PAR-006 with heterozygous knock-in of KRAS activating mutation-G13D; HD 103-007 cell line was derived from parental SW48 cell line HD PAR-006 with heterozygous knock-in of KRAS activating mutation-G12V. […]
(§1) The major endpoint was to evaluate the tumor growth. Tumor sizes were measured twice weekly in two dimensions using a caliper, and the volume were expressed in mm3 using the formula: V=0.5 a×b^2, where a and b are the long and short diameters of the tumor, respectively.

[2] = tested on: SW48-KRAS (G13D/+) xenograft (HD 103-002); assay: Tumor volume of SW48-KRAS (G13D/+) xenograft in isogenic dual-xenograft mice
Procedure: (§2) The SW48 series colorectal adenocarcinoma cells were obtained from Horizon Discovery Ltd (see below in Table 1 for Catalogue number details), and maintained in vitro as a monolayer culture in McCoy's 5A medium supplemented with 10% heat inactivated fetal bovine serum, 2 mM L-glutamine, with or without G418, at 37° C. in an atmosphere of 5% CO2 in air. The tumor cells were routinely subcultured every 3-5 days by trypsin-EDTA treatment. Cells growing in an exponential growth phase were harvested and counted for tumor inoculation. HD 103-002 cell line was derived from parental SW48 cell line HD PAR-006 with heterozygous knock-in of KRAS activating mutation-G13D; HD 103-007 cell line was derived from parental SW48 cell line HD PAR-006 with heterozygous knock-in of KRAS activating mutation-G12V.
(§3) Each mouse is grafted subcutaneously at the left and right flank with SW48 tumor cells (1×10^7 cells) in 0.1 ml of PBS for tumor development, among which 15 mouse are grafted with 1×10^7HD PAR-006 cells at their left flank and with 1×10^7 HD 103-002 cells at their right flank, and the other 15 mouse are grafted with 1×10^7 HD PAR-006 cells at their left flank and with 1×10^7 HD103-007 cells at their right flank. Mice with xenografts are then allow sufficient time (in present embodiment, around 5-8 days) to develop solid tumor.
(§4) Isogenic dual-xenograft mice produced in accordance to the methods described in Example 1 were used to evaluate test agents for their efficacy on the disease associated with mutations of gene. More specifically, mice with different KRAS mutations were treated with EGFR inhibitors to address the question of resistant phenotypes elicited by different KRAS mutations. This design allows direct comparison of wild type and mutant isogenic pairs for treatment responses that are associated with the defined genetic variations.
as §1

[3] = tested on: SW48-KRAS (G12V/+) xenograft (HD 103-007); assay: Tumor volume of SW48-KRAS (G12V/+) xenograft in isogenic dual-xenograft mice
Procedure: as §2, §3, §4, §1

[4] = Erlotinib 50 mg/kg p.o. once daily, 14 days
[5] = Erlotinib 50 mg/kg, p.o., Qd x 14, SW48 KRAS(G13D/+), tumor volume
[6] = Erlotinib 50 mg/kg, p.o., Qd x 14, SW48 KRAS(G12V/+), tumor volume

C#Cc1cccc(Nc2ncnc3cc(OCCOC)c(OCCOC)cc23)c1 [Erlotinib]
effect on tumor volume of the SW48-parental xenograft (FIG. 2A) ([1]; dual model with SW48-KRAS (G12V/+)): reduced | effect on tumor volume of the SW48-parental xenograft (FIG. 1A) ([1]; dual model with SW48-KRAS (G13D/+)): significantly reduced | response of SW48 KRAS (G13D/+) compared to the parental line [2, 4]: remains sensitive | effect on tumor volume of the SW48-KRAS (G13D/+) xenograft (FIG. 1B) ([2]; Erlotinib 50 mg/kg p.o. once daily, 14 days, vs saline): significantly reduced | T/C on Day 21 [2, 5]: 24% | TGI on Day 21 [2, 5]: 76% | response of SW48 KRAS (G12V/+) compared to the parental line [3, 4]: resistant | reduction on the tumor volume of the SW48-KRAS (G12V/+) xenograft (FIG. 2B) ([3]; Erlotinib 50 mg/kg p.o. once daily, 14 days, compared with parental xenograft): not as significant as on the SW48-KRAS-parental xenograft | T/C on Day 21 [3, 6]: 86% | TGI on Day 21 [3, 6]: 14%
